Source: PubChem BioAssay (NCI)
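Cells were grown in 96-well plates and exposed to each compound for 48 hours at five concentrations; endpoints were interpolated linearly between bracketing concentrations, or set to the highest concentration if not reached. At the TGI there is no net growth.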 Where a SMILES comes first, the peptide text is derived from it. [ ]: non-standard residue; d: D form. The star is where a group is joined. AllylGly = C=CC[CH](N)C(=O)O; Boc = CC(C)(C)OC(=O)*; OtBu = CC(C)(C)O*

Experiments:
Test in all cases: NCI-60 cell line screen, 48 h
[1] = tested on: SK-MEL-5 melanoma
[2] = tested on: KM20L2 colon
[3] = tested on: U251 CNS
[4] = tested on: HOP-92 NSCLC
[5] = tested on: UACC-62 melanoma
[6] = tested on: HT29 colon
[7] = tested on: NCI-H226 lung
[8] = tested on: A498 renal
[9] = tested on: UO-31 renal
[10] = tested on: CCRF-CEM leukemia
[11] = tested on: SF-295 CNS
[12] = tested on: OVCAR-5 ovarian
[13] = tested on: CAKI-1 renal
[14] = tested on: HCT-15 colon
[15] = tested on: A549 NSCLC
[16] = tested on: IGROV1 ovarian
[17] = tested on: HL-60(TB) leukemia
[18] = tested on: SK-MEL-28 melanoma
[19] = tested on: OVCAR-8 ovarian
[20] = tested on: SNB-75 CNS
[21] = tested on: M19-MEL melanoma
[22] = tested on: SW-620 colon
[23] = tested on: XF 498 CNS
[24] = tested on: HCT-116 colon
[25] = tested on: DMS 114 small cell lung
[26] = tested on: MOLT-4 leukemia
[27] = tested on: EKVX NSCLC
[28] = tested on: ACHN renal
[29] = tested on: SNB-78 CNS
[30] = tested on: KM12 colon
[31] = tested on: 786-0 renal
[32] = tested on: SNB-19 CNS
[33] = tested on: RXF 393 renal
[34] = tested on: UACC-257 melanoma
[35] = tested on: NCI-H460 lung
[36] = tested on: COLO 205 colon
[37] = tested on: SF-268 CNS
[38] = tested on: HCC-2998 colon
[39] = tested on: HOP-62 NSCLC
[40] = tested on: RPMI-8226 leukemia
[41] = tested on: MALME-3M melanoma
[42] = tested on: SR leukemia
[43] = tested on: NCI-H23 lung
[44] = tested on: SF-539 CNS
[45] = tested on: M14 melanoma
[46] = tested on: LOX IMVI melanoma
[47] = tested on: SN12C renal
[48] = tested on: DLD-1 colon
[49] = tested on: SK-MEL-2 melanoma
[50] = tested on: SK-OV-3 ovarian
[51] = tested on: OVCAR-3 ovarian
[52] = tested on: K-562 leukemia
[53] = tested on: OVCAR-4 ovarian
[54] = tested on: TK-10 renal
[55] = tested on: LXFL 529 NSCLC
[56] = tested on: T-47D breast
[57] = tested on: PC-3 prostate
[58] = tested on: NCI-H522 lung
[59] = tested on: MCF7 breast
[60] = tested on: BT-549 breast
[61] = tested on: DU-145 prostate
[62] = tested on: MDA-MB-231 breast
[63] = tested on: MDA-MB-435
[64] = tested on: MDA-N
[65] = tested on: NCI/ADR-RES ovarian
[66] = tested on: HS 578T breast

For `CCOC(=O)C(=O)Nc1c(F)cc(F)cc1Br`, which TGI [1] is on record?
Its TGI is over 100 µM.

What about the TGI [2] of the same compound?
Its TGI is over 100 µM.

What about the TGI [3] of the same compound?
The TGI was over 100 µM.

And the TGI [4]?
The TGI was over 100 µM.

And the TGI [5]?
The TGI was over 100 µM.

And the TGI [6]?
The TGI was over 100 µM.

And the TGI [7]?
Its TGI is over 100 µM.

What about the TGI [8] of the same compound?
The TGI was over 100 µM.

And the TGI [9]?
Its TGI is over 100 µM.

What about the TGI [10] of the same compound?
The TGI was over 100 µM.

What about the TGI [11] of the same compound?
Its TGI is over 100 µM.

And the TGI [12]?
The TGI was over 100 µM.

What about the TGI [13] of the same compound?
The TGI was over 100 µM.

And the TGI [14]?
Its TGI is over 100 µM.

What about the TGI [15] of the same compound?
The TGI was over 100 µM.

And the TGI [16]?
The TGI was over 100 µM.

And the TGI [17]?
The TGI was over 100 µM.

What about the TGI [18] of the same compound?
Its TGI is over 100 µM.

What about the TGI [19] of the same compound?
Its TGI is over 100 µM.

What about the TGI [20] of the same compound?
Its TGI is over 100 µM.

And the TGI [21]?
The TGI was over 100 µM.

And the TGI [22]?
The TGI was over 100 µM.

And the TGI [23]?
The TGI was over 100 µM.

And the TGI [24]?
The TGI was over 100 µM.

And the TGI [25]?
Its TGI is over 100 µM.

What about the TGI [26] of the same compound?
Its TGI is over 100 µM.

And the TGI [27]?
The TGI was over 100 µM.

And the TGI [28]?
The TGI was over 100 µM.

And the TGI [29]?
Its TGI is over 100 µM.

And the TGI [30]?
Its TGI is over 100 µM.

What about the TGI [31] of the same compound?
Its TGI is over 100 µM.

And the TGI [32]?
The TGI was over 100 µM.

And the TGI [33]?
The TGI was over 100 µM.

What about the TGI [34] of the same compound?
The TGI was over 100 µM.

And the TGI [35]?
The TGI was over 100 µM.

And the TGI [36]?
The TGI was over 100 µM.

And the TGI [37]?
Its TGI is over 100 µM.

And the TGI [38]?
The TGI was over 100 µM.

What about the TGI [39] of the same compound?
The TGI was over 100 µM.

And the TGI [40]?
The TGI was over 100 µM.

And the TGI [41]?
Its TGI is over 100 µM.

And the TGI [42]?
Its TGI is over 100 µM.

What about the TGI [43] of the same compound?
Its TGI is over 100 µM.

And the TGI [44]?
The TGI was over 100 µM.

What about the TGI [45] of the same compound?
The TGI was over 100 µM.

What about the TGI [46] of the same compound?
Its TGI is over 100 µM.

And the TGI [47]?
Its TGI is over 100 µM.

And the TGI [48]?
The TGI was over 100 µM.

What about the TGI [49] of the same compound?
Its TGI is over 100 µM.

And the TGI [50]?
The TGI was over 100 µM.

And the TGI [51]?
The TGI was over 100 µM.

What about the TGI [52] of the same compound?
The TGI was over 100 µM.

And the TGI [53]?
Its TGI is over 100 µM.

What about the TGI [54] of the same compound?
The TGI was over 100 µM.

What about the TGI [55] of the same compound?
Its TGI is over 100 µM.

With `C=CCC(NC(=O)C(CC(=O)OC(C)(C)C)NC(=O)OC(C)(C)C)C(=O)OC` (centres undefined) (Boc-Asp(OtBu)-[AllylGly]-OMe; configuration not given here) as the compound, how does the TGI [1] read?
The TGI was over 57.3 µM.

And the TGI [3]?
The TGI was over 63 µM.

What about the TGI [4] of the same compound?
The TGI was over 100 µM.

What about the TGI [56] of the same compound?
The TGI was over 100 µM.

What about the TGI [57] of the same compound?
The TGI was over 100 µM.

And the TGI [5]?
The TGI was over 100 µM.

What about the TGI [6] of the same compound?
The TGI was over 100 µM.

And the TGI [7]?
The TGI was over 100 µM.

And the TGI [8]?
Its TGI is over 100 µM.

And the TGI [58]?
Its TGI is over 100 µM.

And the TGI [9]?
Its TGI is over 100 µM.

What about the TGI [10] of the same compound?
The TGI was over 100 µM.

And the TGI [59]?
The TGI was over 100 µM.

And the TGI [11]?
The TGI was over 100 µM.

And the TGI [12]?
The TGI was over 100 µM.

And the TGI [13]?
The TGI was over 100 µM.

And the TGI [14]?
Its TGI is over 100 µM.

And the TGI [60]?
Its TGI is over 100 µM.

And the TGI [15]?
Its TGI is over 100 µM.

What about the TGI [61] of the same compound?
Its TGI is over 100 µM.

What about the TGI [16] of the same compound?
Its TGI is over 100 µM.

And the TGI [17]?
Its TGI is 85.5 µM.

What about the TGI [18] of the same compound?
The TGI was over 100 µM.

And the TGI [19]?
Its TGI is 26.6 µM.

What about the TGI [20] of the same compound?
The TGI was over 100 µM.

What about the TGI [22] of the same compound?
Its TGI is over 100 µM.

What about the TGI [24] of the same compound?
The TGI was over 100 µM.

What about the TGI [26] of the same compound?
The TGI was over 91.6 µM.

And the TGI [27]?
The TGI was over 100 µM.

What about the TGI [28] of the same compound?
The TGI was over 100 µM.

What about the TGI [62] of the same compound?
Its TGI is over 100 µM.

What about the TGI [30] of the same compound?
The TGI was over 100 µM.

What about the TGI [31] of the same compound?
The TGI was over 100 µM.

And the TGI [32]?
The TGI was over 100 µM.

And the TGI [33]?
Its TGI is over 100 µM.

And the TGI [63]?
Its TGI is over 91.3 µM.

What about the TGI [34] of the same compound?
The TGI was 58.1 µM.

What about the TGI [35] of the same compound?
The TGI was over 100 µM.

What about the TGI [36] of the same compound?
Its TGI is 51.8 µM.

What about the TGI [37] of the same compound?
The TGI was over 100 µM.

What about the TGI [38] of the same compound?
The TGI was 61.3 µM.

What about the TGI [39] of the same compound?
The TGI was over 100 µM.

And the TGI [40]?
The TGI was over 84.6 µM.

And the TGI [41]?
The TGI was 3.04 µM.

What about the TGI [42] of the same compound?
The TGI was over 100 µM.

And the TGI [43]?
The TGI was over 100 µM.

What about the TGI [44] of the same compound?
Its TGI is over 100 µM.

And the TGI [45]?
The TGI was 43 µM.

And the TGI [64]?
Its TGI is over 79.7 µM.

What about the TGI [46] of the same compound?
The TGI was 41.7 µM.

And the TGI [47]?
The TGI was over 100 µM.

And the TGI [49]?
The TGI was over 100 µM.

What about the TGI [50] of the same compound?
The TGI was over 100 µM.

What about the TGI [51] of the same compound?
Its TGI is 61.4 µM.

And the TGI [52]?
The TGI was over 100 µM.

What about the TGI [53] of the same compound?
The TGI was over 100 µM.

What about the TGI [65] of the same compound?
Its TGI is over 100 µM.

And the TGI [54]?
Its TGI is over 100 µM.

What about the TGI [66] of the same compound?
The TGI was over 100 µM.
